Where only a bound is given, the exact number is not on record here.

Chain of ATM (Q13315 whole entry): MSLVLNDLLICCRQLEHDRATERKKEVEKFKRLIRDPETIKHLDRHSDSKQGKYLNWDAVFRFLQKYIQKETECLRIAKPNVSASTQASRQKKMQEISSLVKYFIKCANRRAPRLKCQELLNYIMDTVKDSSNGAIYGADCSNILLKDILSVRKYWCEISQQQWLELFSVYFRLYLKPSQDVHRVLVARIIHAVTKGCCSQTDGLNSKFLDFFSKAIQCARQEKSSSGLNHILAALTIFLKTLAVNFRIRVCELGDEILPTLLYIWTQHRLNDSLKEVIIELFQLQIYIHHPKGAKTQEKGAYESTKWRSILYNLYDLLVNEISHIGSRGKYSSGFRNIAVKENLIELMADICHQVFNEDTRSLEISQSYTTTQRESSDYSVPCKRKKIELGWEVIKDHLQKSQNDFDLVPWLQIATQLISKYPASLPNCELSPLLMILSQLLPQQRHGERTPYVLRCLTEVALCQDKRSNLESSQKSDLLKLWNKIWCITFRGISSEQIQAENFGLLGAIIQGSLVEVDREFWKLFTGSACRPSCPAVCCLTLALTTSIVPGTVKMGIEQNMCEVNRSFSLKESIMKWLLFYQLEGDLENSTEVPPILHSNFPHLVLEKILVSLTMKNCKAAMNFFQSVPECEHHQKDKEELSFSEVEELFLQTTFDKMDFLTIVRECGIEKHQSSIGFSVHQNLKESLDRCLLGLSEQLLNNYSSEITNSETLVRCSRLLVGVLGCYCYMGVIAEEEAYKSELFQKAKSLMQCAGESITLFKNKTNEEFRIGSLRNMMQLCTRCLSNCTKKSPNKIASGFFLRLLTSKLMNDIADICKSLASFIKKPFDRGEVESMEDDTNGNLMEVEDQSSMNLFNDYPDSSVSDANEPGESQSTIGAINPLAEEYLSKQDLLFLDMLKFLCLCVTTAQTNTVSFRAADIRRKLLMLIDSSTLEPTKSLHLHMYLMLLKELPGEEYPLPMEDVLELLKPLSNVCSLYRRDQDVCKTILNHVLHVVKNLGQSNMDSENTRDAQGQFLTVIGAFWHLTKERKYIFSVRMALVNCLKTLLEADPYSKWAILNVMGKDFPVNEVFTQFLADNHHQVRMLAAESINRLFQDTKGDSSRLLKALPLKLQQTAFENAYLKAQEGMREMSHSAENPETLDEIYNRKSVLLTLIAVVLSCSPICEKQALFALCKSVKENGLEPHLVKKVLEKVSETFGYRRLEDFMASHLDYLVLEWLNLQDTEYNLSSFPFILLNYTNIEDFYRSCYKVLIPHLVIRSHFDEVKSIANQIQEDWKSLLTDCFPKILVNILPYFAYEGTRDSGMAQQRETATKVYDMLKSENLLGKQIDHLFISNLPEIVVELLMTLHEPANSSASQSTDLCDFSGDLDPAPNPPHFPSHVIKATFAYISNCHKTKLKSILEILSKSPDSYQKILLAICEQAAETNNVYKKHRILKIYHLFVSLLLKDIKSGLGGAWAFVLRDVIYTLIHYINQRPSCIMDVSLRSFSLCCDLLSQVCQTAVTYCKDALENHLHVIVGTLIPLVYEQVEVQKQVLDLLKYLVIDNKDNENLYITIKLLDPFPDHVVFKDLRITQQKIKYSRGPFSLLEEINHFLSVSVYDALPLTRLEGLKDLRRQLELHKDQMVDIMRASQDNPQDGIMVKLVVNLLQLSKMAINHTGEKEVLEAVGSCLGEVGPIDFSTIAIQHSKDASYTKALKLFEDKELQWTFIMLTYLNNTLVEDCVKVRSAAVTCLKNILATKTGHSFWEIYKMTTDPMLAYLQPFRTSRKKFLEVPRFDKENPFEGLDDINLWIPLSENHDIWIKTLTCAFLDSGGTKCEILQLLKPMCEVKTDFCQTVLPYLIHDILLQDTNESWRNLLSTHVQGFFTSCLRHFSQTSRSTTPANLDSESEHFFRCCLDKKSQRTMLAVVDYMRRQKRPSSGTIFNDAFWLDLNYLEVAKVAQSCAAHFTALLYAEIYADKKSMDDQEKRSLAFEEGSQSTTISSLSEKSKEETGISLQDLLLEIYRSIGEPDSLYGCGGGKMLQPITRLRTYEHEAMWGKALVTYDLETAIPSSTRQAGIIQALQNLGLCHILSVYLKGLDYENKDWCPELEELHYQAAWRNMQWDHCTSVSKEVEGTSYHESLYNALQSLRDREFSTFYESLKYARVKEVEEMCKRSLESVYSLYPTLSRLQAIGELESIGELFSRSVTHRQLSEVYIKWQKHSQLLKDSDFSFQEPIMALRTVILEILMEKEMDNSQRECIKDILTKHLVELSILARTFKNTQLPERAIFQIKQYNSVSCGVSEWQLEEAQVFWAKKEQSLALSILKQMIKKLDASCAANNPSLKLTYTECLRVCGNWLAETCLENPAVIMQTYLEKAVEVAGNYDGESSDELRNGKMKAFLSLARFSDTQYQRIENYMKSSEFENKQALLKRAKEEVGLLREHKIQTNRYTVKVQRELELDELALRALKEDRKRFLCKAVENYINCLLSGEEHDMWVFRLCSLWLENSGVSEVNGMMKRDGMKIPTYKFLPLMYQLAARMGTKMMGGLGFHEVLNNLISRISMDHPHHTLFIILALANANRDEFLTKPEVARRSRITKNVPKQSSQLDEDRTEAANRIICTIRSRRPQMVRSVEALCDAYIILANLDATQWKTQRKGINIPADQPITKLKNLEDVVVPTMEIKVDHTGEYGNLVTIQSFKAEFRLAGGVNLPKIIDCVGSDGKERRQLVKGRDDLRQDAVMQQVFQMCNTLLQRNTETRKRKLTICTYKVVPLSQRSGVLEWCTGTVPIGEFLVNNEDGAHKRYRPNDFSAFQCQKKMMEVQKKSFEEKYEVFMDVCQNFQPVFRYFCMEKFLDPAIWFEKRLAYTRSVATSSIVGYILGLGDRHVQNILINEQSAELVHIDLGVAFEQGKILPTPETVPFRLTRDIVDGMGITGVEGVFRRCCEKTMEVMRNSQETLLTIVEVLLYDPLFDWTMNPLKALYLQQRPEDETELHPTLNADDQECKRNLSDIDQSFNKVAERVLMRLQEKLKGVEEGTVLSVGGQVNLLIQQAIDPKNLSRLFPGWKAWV

For this experiment, the target named is ATM (Homo sapiens (Human), UniProt Q13315). Put plainly: ATM in Cell Western Assay (pKAP1 in etoposide-treated MCF-7 cells). The note with it: pKAP1 in etoposide-treated MCF-7 cells. Type of experiment: cell-based. The essentials:
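After paraformaldehyde fixation and Triton X-100 permeabilization, immunostained plates were read by infrared scanning (ODYSSEY CLx). Compound was given as 10 doses, 3-fold dilutions from a 1 μM final top concentration.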
For the molecule `CC(C)NCCOc1ncc(-c2cc3c4c(cnc3cc2F)N(C)C(=O)C42CN(C[C@@H](O)CO)C2)cc1NS(C)(=O)=O` [Example 509, (R)-N-(5-(1-(2,3-Dihydroxypropyl)-7′-fluoro-3′-methyl-2′-oxo-2′,3′-dihydrospiro[azetidine-3,1′-pyrrolo[2,3-c]quinolin]-8′-yl)-2-(2-(isopropylamino)ethoxy)pyridin-3-yl)methanesulfonamide], the half-maximal inhibitory concentration (IC50) (usually the concentration needed to halve the response being measured) was greater than 100 nM.
The figure for `CC(C)NCCOc1ncc(-c2cc3c4c(cnc3cc2F)N(C)C(=O)C42CN(C[C@H](O)CO)C2)cc1NS(C)(=O)=O` [Example 510, (S)-N-(5-(1-(2,3-Dihydroxypropyl)-7′-fluoro-3′-methyl-2′-oxo-2′,3′-dihydrospiro[azetidine-3,1′-pyrrolo[2,3-c]quinolin]-8′-yl)-2-(2-(isopropylamino)ethoxy)pyridin-3-yl)methanesulfonamide] is greater than 100 nM; for `CC(=O)N1CC2(C1)C(=O)N(C)c1cnc3cc(F)c(-c4cnc(OCCNC(C)C)c(NS(C)(=O)=O)c4)cc3c12` [Example 511, N-(5-(1-Acetyl-7′-fluoro-3′-methyl-2′-oxo-2′,3′-dihydrospiro[azetidine-3,1′-pyrrolo[2,3-c]quinolin]-8′-yl)-2-(2-(isopropylamino)ethoxy)pyridin-3-yl)methanesulfonamide] it is greater than 100 nM; for `CC(C)NCCOc1ncc(-c2cc3c4c(cnc3cc2F)N(C)C(=O)C42CN(C(=O)C(C)C)C2)cc1NS(C)(=O)=O` [Example 512, N-(5-(7′-Fluoro-1-isobutyryl-3′-methyl-2′-oxo-2′,3′-dihydrospiro[azetidine-3,1′-pyrrolo[2,3-c]quinolin]-8′-yl)-2-(2-(isopropylamino)ethoxy)pyridin-3-yl)methanesulfonamide] it is greater than 100 nM.
With `COC(=O)N1CC2(C1)C(=O)N(C)c1cnc3cc(F)c(-c4cnc(OCCNC(C)C)c(NS(C)(=O)=O)c4)cc3c12` [Example 513, Methyl7′-fluoro-8′-(6-(2-(isopropylamino)ethoxy)-5-(methylsulfonamido)pyridin-3-yl)-3′-methyl-2′-oxo-2′,3′-dihydrospiro[azetidine-3,1′-pyrrolo[2,3-c]quinoline]-1-carboxylate], the IC50 was greater than 100 nM.
`CC(C)NCCOc1ncc(-c2cc3c4c(cnc3cc2F)N(C)C(=O)C42CN(C(=O)OC(C)C)C2)cc1NS(C)(=O)=O` [Example 514, Isopropyl 7′-fluoro-8′-(6-(2-(isopropylamino)ethoxy)-5-(methylsulfonamido)pyridin-3-yl)-3′-methyl-2′-oxo-2′,3′-dihydrospiro [azetidine-3,1′-pyrrolo[2,3-c]quinoline]-1-carboxylate] had a concentration for half-maximal inhibition (IC50) of 1 to 100 nM.
`CC(C)NCCOc1ncc(-c2cc3c4c(cnc3cc2F)N(C)C(=O)C42CN(S(=O)(=O)c3ccccc3)C2)cc1NS(C)(=O)=O` [Example 515] registered an IC50 greater than 100 nM.
In the case of `CC(C)NCCOc1ncc(-c2cc3c4c(cnc3cc2F)N(C)C(=O)C42CN(C(=O)c3ccccc3)C2)cc1NS(C)(=O)=O` [Example 516, N-(5-(1-Benzoyl-7′-fluoro-3′-methyl-2′-oxo-2′,3′-dihydrospiro[azetidine-3,1′-pyrrolo[2,3-c]quinolin]-8′-yl)-2-(2-(isopropylamino)ethoxy)pyridin-3-yl)methanesulfonamide] it was greater than 100 nM; in that of `CC(C)NCCOc1ncc(-c2cc3c4c(cnc3cc2F)N(C)C(=O)C42CN(C(N)=O)C2)cc1NS(C)(=O)=O` [Example 517, 7′-Fluoro-8′-(6-(2-(isopropylamino)ethoxy)-5-(methylsulfonamido)pyridin-3-yl)-3′-methyl-2′-oxo-2′,3′-dihydrospiro[azetidine-3,1′-pyrrolo[2,3-c]quinoline]-1-carboxamide], greater than 100 nM.
As to `CC(C)NCCOc1ncc(-c2cc3c4c(cnc3cc2F)N(C)C(=O)C42CN(C(=O)N(C)C)C2)cc1NS(C)(=O)=O` [Example 518, 7′-Fluoro-8′-(6-(2-(isopropylamino)ethoxy)-5-(methylsulfonamido)pyridin-3-yl)-N,N,3′-trimethyl-2′-oxo-2′,3′-dihydrospiro[azetidine-3,1′-pyrrolo[2,3-c]quinoline]-1-carboxamide], the half-inhibitory concentration (IC50) is greater than 100 nM.
The figure for `Cc1cc(S(=O)(=O)Nc2cc(-c3cc4c5c(cnc4cc3F)N(C)C(=O)C53CN(c4ccccc4)C3)cnc2OCCNC(C)C)sn1` [Example 521] is 1 to 100 nM; for `CC(C)NCCOc1ncc(-c2cc3c4c(cnc3cc2F)N(C)C(=O)C42CN(c3ccc(C(C)(C)C)cc3)C2)cc1NS(C)(=O)=O` [Example 531, N-(5-(1-(4-(ter-Butyl)phenyl)-7′-fluoro-3′-methyl-2′-oxo-2′,3′-dihydrospiro[azetidine-3,1′-pyrrolo[2,3-c]quinolin]-8′-yl)-2-(2-(isopropylamino)ethoxy)pyridin-3-yl)methanesulfonamide] it is 1 to 100 nM; for `COc1cccc(N2CC3(C2)C(=O)N(C)c2cnc4cc(F)c(-c5cnc(OCCNC(C)C)c(NS(C)(=O)=O)c5)cc4c23)c1` [Example 534, N-(5-(7′-Fluoro-1-(3-methoxyphenyl)-3′-methyl-2′-oxo-2′,3′-dihydrospiro [azetidine-3,1′-pyrrolo[2,3-c]quinolin]-8′-yl)-2-(2-(isopropylamino)ethoxy)pyridin-3-yl)methanesulfonamide] it is 1 to 100 nM.
As to `CC(C)NCCOc1ncc(-c2cc3c4c(cnc3cc2F)N(C)C(=O)C42CN(c3cccc(C(F)(F)F)c3)C2)cc1NS(C)(=O)=O` [Example 537, N-(5-(7′-Fluoro-3′-methyl-2′-oxo-1-(3-(trifluoromethyl)phenyl)-2′,3′-dihydrospiro[azetidine-3,1′-pyrrolo[2,3-c]quinolin]-8′-yl)-2-(2-(isopropylamino)ethoxy)pyridin-3-yl)methanesulfonamide], the IC50 is 1 to 100 nM.
With `CC(C)NCCOc1ncc(-c2cc3c4c(cnc3cc2F)N(C)C(=O)C42CN(c3cccc(OC(F)(F)F)c3)C2)cc1NS(C)(=O)=O` [Example 542, N-(5-(7′-Fluoro-3′-methyl-2′-oxo-1-(3-(trifluoromethoxy)phenyl)-2′,3′-dihydrospiro[azetidine-3,1′-pyrrolo[2,3-c]quinolin]-8′-yl)-2-(2-(isopropylamino)ethoxy)pyridin-3-yl)methanesulfonamide], the concentration for half-maximal inhibition (IC50) was in the range of 1 to 100 nM.
In the case of `COc1ccc(N2CC3(C2)C(=O)N(C)c2cnc4cc(F)c(-c5cnc(OCCNC(C)C)c(NS(C)(=O)=O)c5)cc4c23)cc1OC` [Example 546, N-(5-(1-(3,4-Dimethoxyphenyl)-7′-fluoro-3′-methyl-2′-oxo-2′,3′-dihydrospiro[azetidine-3,1′-pyrrolo[2,3-c]quinolin]-8′-yl)-2-(2-(isopropylamino)ethoxy)pyridin-3-yl)methanesulfonamide] it was 1 to 100 nM; in that of `CC(C)NCCOc1ncc(-c2cc3c4c(cnc3cc2F)N(C)C(=O)C42CN(c3ccncc3)C2)cc1NS(C)(=O)=O` [Example 547, N-(5-(7′-Fluoro-3′-methyl-2′-oxo-1-(pyridin-4-yl)-2′,3′-dihydrospiro [azetidine-3,1′-pyrrolo[2,3-c]quinolin]-8′-yl)-2-(2-(isopropylamino)ethoxy)pyridin-3-yl)methanesulfonamide], greater than 100 nM.

(Values after patent publication US12187742B2 (XRAD Therapeutics, Inc., priority 2018, dated 2025).)
